Reference: publication PMC4747952, “Development of TASP0410457 (TASP457), a novel dihydroquinolinone derivative as a PET radioligand for central histamine H3 receptors” (EJNMMI Research, 2016)

Experiments:
monkey H3Rs = molecular target: T1, monkey H3Rs (Macaca mulatta, UniProt Q865E1); assay: In vitro binding to H3Rs, monkey frontal cortex membranes, [^3H]N-α-methylhistamine; conditions: 1 nM [^3H]N-α-methylhistamine, geometric mean, n = 3, read-out: Affinity for H3Rs Monkey, IC50
T1 construct: Rat cerebral cortex and monkey frontal cortex were dissected; from tissue; host or cells: monkey frontal cortex membranes
T1 sequence (Q865E1 1-445): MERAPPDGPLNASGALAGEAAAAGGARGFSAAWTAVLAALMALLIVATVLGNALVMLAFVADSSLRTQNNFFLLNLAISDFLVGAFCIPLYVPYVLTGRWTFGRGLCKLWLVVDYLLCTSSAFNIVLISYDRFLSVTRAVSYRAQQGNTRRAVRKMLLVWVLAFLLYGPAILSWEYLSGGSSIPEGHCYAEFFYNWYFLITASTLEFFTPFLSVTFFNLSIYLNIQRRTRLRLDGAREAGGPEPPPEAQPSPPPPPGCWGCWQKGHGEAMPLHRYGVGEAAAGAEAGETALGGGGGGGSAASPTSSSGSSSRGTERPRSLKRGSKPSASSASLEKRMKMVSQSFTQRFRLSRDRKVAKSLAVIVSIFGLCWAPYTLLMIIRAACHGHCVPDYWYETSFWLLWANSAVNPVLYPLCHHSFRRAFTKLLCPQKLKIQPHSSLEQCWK
Protocol: Rat cerebral cortex and monkey frontal cortex were dissected, homogenized with 50 mM Tris buffer (pH 7.4) containing 5 mM EDTA and Protease Inhibitor Cocktail Tablets (Roche Diagnostics, Indianapolis, IN) and centrifuged at 48,000×g for 15 min at 4 °C. The pellets were then suspended in binding buffer (50 mM Tris containing 5 mM EDTA, pH 7.4) and stored at −80 °C as membrane preparations.
The membrane preparations were thawed and incubated in the binding buffer containing 0.1 % bovine serum albumin, 1 nM [^3H]N-α-methylhistamine (PerkinElmer, Waltham, MA) with various concentrations of a dihydroquinolinone derivative (i.e., test compound) at 25 °C for 1 h. The reaction was terminated by rapid filtration through 96-well GF/C filter plates (PerkinElmer) presoaked with 0.5 % polyethyleneimine (Wako, Osaka, Japan). After washes with ice-cold binding buffer, the plates were dried and filled with Microscint-o (PerkinElmer). The radioactivity retained on the filters was counted using a TopCount NXT (PerkinElmer). Total and nonspecific radioligand binding was determined by reaction without and with 10 μM thioperamide and clobenpropit, respectively. The specific radioligand binding was then calculated by subtracting the nonspecific binding from the total binding. The IC50 value for inhibition of the radioligand binding by the test compound was determined using a nonlinear fit of the concentration-response curve for each test compound using SAS 9.2 (SAS Institute Inc., Cary, NC). Data were expressed as the geometric means of IC50 values from three independent experiments run in duplicate.

P-glycoprotein (MDR1) = molecular target: T2, P-glycoprotein (MDR1) (Homo sapiens, UniProt P08183); assay: P-glycoprotein-mediated transcellular transport, LLC-GA5-COL300 cells; format: in vitro ADME; conditions: for susceptibility for P-glycoprotein (substrate or not): assumed criterion: efflux ratio (ER) exceeding 2.00; for efflux ratio at 2 h, 1 µM: human, LLC-PK1, ER=Papp, b to a/Papp, a to b, LLC-GA5-COL300 cells
T2 construct: expressed in transfected cells; host or cells: LLC-GA5-COL300
T2 sequence (P08183 whole entry): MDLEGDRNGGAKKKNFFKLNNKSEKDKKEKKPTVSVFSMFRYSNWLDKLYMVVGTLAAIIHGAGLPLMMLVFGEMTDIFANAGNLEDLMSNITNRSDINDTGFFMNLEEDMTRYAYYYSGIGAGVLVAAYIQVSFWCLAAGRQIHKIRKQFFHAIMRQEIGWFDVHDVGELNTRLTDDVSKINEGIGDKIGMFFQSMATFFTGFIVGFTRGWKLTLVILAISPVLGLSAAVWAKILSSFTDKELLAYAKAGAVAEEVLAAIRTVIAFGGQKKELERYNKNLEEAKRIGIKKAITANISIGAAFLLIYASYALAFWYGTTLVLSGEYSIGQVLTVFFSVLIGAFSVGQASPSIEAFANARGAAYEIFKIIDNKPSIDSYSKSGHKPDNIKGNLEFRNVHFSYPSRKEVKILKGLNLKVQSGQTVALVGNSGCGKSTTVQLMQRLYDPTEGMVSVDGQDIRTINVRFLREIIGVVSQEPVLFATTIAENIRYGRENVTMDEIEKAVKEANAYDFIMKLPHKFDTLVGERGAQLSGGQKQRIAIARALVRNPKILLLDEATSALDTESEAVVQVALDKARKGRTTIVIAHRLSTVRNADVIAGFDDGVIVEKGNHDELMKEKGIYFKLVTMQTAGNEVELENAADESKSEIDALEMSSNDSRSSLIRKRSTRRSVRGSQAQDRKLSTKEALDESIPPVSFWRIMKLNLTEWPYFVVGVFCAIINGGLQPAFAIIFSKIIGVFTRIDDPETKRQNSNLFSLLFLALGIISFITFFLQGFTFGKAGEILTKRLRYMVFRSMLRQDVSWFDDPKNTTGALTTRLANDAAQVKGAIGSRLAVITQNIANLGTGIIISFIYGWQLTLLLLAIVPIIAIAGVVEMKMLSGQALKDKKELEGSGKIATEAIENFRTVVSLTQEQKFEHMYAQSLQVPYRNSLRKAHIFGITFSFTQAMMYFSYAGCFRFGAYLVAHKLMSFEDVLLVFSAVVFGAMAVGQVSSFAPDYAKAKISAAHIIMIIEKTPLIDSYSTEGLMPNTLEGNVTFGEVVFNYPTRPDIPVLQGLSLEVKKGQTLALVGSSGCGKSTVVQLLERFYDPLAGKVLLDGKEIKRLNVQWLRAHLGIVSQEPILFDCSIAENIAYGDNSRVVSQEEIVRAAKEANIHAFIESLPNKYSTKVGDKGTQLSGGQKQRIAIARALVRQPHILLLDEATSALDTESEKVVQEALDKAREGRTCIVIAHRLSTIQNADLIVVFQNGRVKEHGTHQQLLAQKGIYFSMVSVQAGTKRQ
Protocol: Assays for P-glycoprotein-mediated transcellular transport of compounds LLC-GA5-COL300 cells expressing human P-glycoprotein were seeded at a density of 4.5 × 10^5 cells/cm2 onto polycarbonate membrane filters of 12-well cell culture insert plates and cultured at 37°C in a humidified incubator containing 5% CO2 for 3 days. After each cell monolayer was pre-incubated at 37°C for 20 min in Hank’s balanced salt solution containing 10 mM HEPES (HBSS buffer), transcellular transport experiments were initiated by adding the test compound solution to the apical or basal side of the cell culture inserts. HBSS buffer was sampled from the compartment opposite of that spiked with the test compounds at 0.5, 1, 1.5 and 2 h after initiation of the experiments, and concentrations of the test compounds were determined using LC-MS/MS. The apparent permeability coefficient (Papp) of the test compounds was calculated using the following equation:
Papp= dQ/dt / C0 / A Eq. 1, where dQ/dt represents the rate of permeation of the compounds, C0 is the initial concentration of the test compounds ([…]), and A is the area of the monolayer. The efflux ratio (ER) was defined as […]
ER=Papp, b to a/Papp, a to b Eq. 2, where Papp, b to a and Papp, a to b represent Papp in the basal-to-apical (b to a) and apical-to-basal (a to b) directions, respectively. […]

[1] = Ex vivo pharmacokinetic assessment in the rat brain using LC-MS/MS; conditions: 10 μg/kg intravenous, n = 3
Protocol: The rats were decapitated at 5, 15, 30, 60, and 120 min after intravenous administration of TASP0390136, TASP0390174, TASP0410426, TASP0410427, TASP0410457, or TASP0434988 at a dose of 10 μg/kg. The cerebellum and forebrain, including the medial prefrontal and cingulate cortices and anterior striatum, were dissected and homogenized with four volumes of distilled water. The homogenates were protein-precipitated with methanol/acetonitrile (1:9) and were centrifuged at 3974×g for 10 min at 4 °C. The resultant supernatants were injected into an HPLC (Shimadzu-20AD, Shimadzu, Kyoto, Japan) and a tandem mass spectrometer (API4000, AB SCIEX, Framingham, MA) using a Shim-pak XR-ODS column (3.0 × 30 mm, Shimadzu) at 50 °C. TASP0410457 was eluted with a mobile phase consisting of 10 mM of ammonium acetate/acetonitrile with a linear gradient at a flow rate of 1.3 mL/min, and ammonium formate instead of ammonium acetate was used for eluting the other five compounds. […] The eluted TASP0390136, TASP0390174, TASP0410426, TASP0410427, TASP0410457, and TASP0434988 were ionized using an electrospray interface and were detected using reaction monitoring of the transitions of m/z 395 to 91, 395 to 98, 413 to 98, 425 to 98, 408 to 138, and 407 to 138, respectively. A dihydroquinolinone compound (6-[(1-cyclobutylpiperidin-4-yl)oxy]-1-(3,5-difluorophenyl)-3,4-dihydroquinolin-2(1H)-one) was used as an internal standard for all assays. The lower qualification limit for TASP0410457 was 0.05 ng/g tissue, and the limit for the other five compounds was 0.15 ng/g tissue. Data were expressed as standardized uptake values (SUVs) calculated as follows: SUV=tissueconcentrationg/g×bodyweightg/injecteddoseg

IC50 (monkey H3Rs) [nM]	susceptibility for P-glycoprotein (substrate or not) (P-glycoprotein (MDR1))	efflux ratio at 2 h, 1 µM (P-glycoprotein (MDR1))	Mean peak concentration in the forebrain expressed as SUV [1] [SUV]	SMILES
0.565	P-glycoprotein substrates	2.14	0.58	COc1ccc(N2C(=O)CCc3cc(OC4CCN(C5CCC5)CC4)ccc32)cc1 [TASP0434988, 6-[(1-cyclobutylpiperidin-4-yl)oxy]-1-(4-methoxyphenyl)-3,4-dihydroquinolin-2(1H)-one]
1.06	P-glycoprotein substrates	6.29	0.30	COc1ccc(N2C(=O)CCc3cc(OCCCN4CCC[C@H]4C)ccc32)cc1 [TASP0390136, 1-(4-methoxyphenyl)-6-{3-[(2R)-2-methylpyrrolidin-1-yl]propoxy}-3,4-dihydroquinolin-2(1H)-one]
1.8	not a substrate of P-glycoprotein	1.64	0.85	COc1ccc(N2C(=O)CCc3cc(OC4CCN(C5CCC5)CC4)ccc32)cn1 [TASP0410457, 6-[(1-Cyclobutylpiperidin-4-yl)oxy]-1-(6-methoxypyridin-3-yl)-3,4-dihydroquinolin-2(1H)-one]
